Test results taken from patent US7279293B2 (priority 2002, dated 2007).
“Also recorded” adds a separate entry of the source.

Columns and labels:
Type in all cases: cell-based
[1] = target: T1, MT6 clone (constitutively active mouse H3 receptor mutant) (Mus musculus, UniProt P58406, A357K); assay: cAMP levels by ELISA (cAMP EIA) in the HEK293 MT6 clone, with 10 μM forskolin; details: thioperamide with 10 μM forskolin; MT6 clone versus wild type H3
T1 construct: expressed in transfected cells
Protocol: (§1) Wild type mouse H3 receptor cDNA and the five mouse H3 receptor mutant cDNAs were each transfected into cell line HEK293, and screened with G418 to obtain their respective stable clones. Northern analysis was used to check expression levels, and stable clones with roughly equal expression levels were used in the experiment.
Since H3 receptors are Gi-binding-type G protein-coupled receptors, cAMP levels were measured using ELISA. More specifically, 10^5 cells per well were cultured in a 24-well plate the day before testing. On the day of the test, cells were cultured for 15 minutes in the absence of serum, and then treated for 15 minutes with 0.5 mM IBMX. Forskolin (10 μM), histamine (10^−11 M to 10^−6 M) and thioperamide (10^−10 M to 10^−5 M) were respectively added, and the cells were treated for 15 minutes. The cAMP Enzyme Immunoassay (EIA) System (Amersham) was used to measure cAMP. The cells were lysed with 150 μl of lysing reagent 1B, provided with the kit. 5 μl of the cell lysate and rabbit anti-cAMP antibody were reacted by being allowed to stand undisturbed at 4° C. for two hours on an antibody-immobilized plate. […] The reaction was stopped with 1 N sulfuric acid, and optical absorbance was then measured. A standard curve was produced from the optical absorbances of standard cAMP solutions, and cAMP levels were determined.

[2] = target: T2, wild type mouse H3 receptor and mouse H3 receptor mutants MT1, MT2, MT3, MT5, MT6 (Mus musculus, UniProt P58406, A357K)
T2 construct: expressed in transfected cells
T2 sequence (P58406 whole entry A357K): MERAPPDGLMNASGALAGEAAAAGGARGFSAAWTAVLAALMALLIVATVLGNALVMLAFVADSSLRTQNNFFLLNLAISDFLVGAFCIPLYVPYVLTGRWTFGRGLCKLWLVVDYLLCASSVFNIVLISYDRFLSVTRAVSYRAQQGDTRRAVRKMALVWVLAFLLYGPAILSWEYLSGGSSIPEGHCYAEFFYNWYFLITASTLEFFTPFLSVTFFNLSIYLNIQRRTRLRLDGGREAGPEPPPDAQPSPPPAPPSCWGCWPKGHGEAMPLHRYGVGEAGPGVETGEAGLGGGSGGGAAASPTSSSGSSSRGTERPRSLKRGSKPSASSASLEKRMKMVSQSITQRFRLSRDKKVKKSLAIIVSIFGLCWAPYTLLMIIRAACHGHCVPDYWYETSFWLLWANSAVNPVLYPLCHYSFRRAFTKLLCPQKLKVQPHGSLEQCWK
Protocol: as §1
(§2) Since H3 receptors are Gi-binding-type G protein-coupled receptors, cAMP levels were measured using ELISA. More specifically, 10^5 cells per well were cultured in a 24-well plate the day before testing. On the day of the test, cells were cultured for 15 minutes in the absence of serum, and then treated for 15 minutes with 0.5 mM IBMX. Forskolin (10 μM), histamine (10^−11 M to 10^−6 M) and thioperamide (10^−10 M to 10^−5 M) were respectively added, and the cells were treated for 15 minutes. The cAMP Enzyme Immunoassay (EIA) System (Amersham) was used to measure cAMP. The cells were lysed with 150 μl of lysing reagent 1B, provided with the kit. 5 μl of the cell lysate and rabbit anti-cAMP antibody were reacted by being allowed to stand undisturbed at 4° C. for two hours on an antibody-immobilized plate. Moreover, enzyme-labeled antibody was added and reacted by being allowed to stand undisturbed at 4° C. for one hour. The plate was washed with buffer, and enzyme substrate solution was then added and reacted by being allowed to stand undisturbed at room temperature for about 30 minutes. The reaction was stopped with 1 N sulfuric acid, and optical absorbance was then measured. A standard curve was produced from the optical absorbances of standard cAMP solutions, and cAMP levels were determined.

[3] = tested on: wild type mouse H3 receptor and mouse H3 receptor mutants MT1, MT2, MT3, MT5, MT6; details: 10 μM forskolin
Protocol: as §1, §2

T1 sequence (P58406 whole entry A357K): as above

S=C(NC1CCCCC1)N1CCC(c2cnc[nH]2)CC1 [thioperamide]
cAMP increase in MT6 clone compared to the wild type [1]: about five-fold | change in cAMP levels caused by thioperamide [2]: increase with increased doses of thioperamide; also recorded: increase cAMP levels dose-dependently

NCCc1c[nH]cn1 [histamine]
change in cAMP levels caused by histamine ([3]; all clones, histamine 10^-11 M to 10^-6 M, 15 minutes, FIG. 4): decrease in a histamine dose-dependent manner; also recorded: decreased histamine dose-dependently

pertussis toxin [PTX]
effect of PTX on the cAMP increases caused by thioperamide ([3]; wild type H3 and MT6 clones, PTX 100 ng/ml for 18 hours): inhibited the increases in cAMP caused by thioperamide
